Assay [1] has as its target T1, Alpha-2A adrenergic receptor (Homo sapiens, UniProt P08913).
T1 sequence (P08913 whole entry): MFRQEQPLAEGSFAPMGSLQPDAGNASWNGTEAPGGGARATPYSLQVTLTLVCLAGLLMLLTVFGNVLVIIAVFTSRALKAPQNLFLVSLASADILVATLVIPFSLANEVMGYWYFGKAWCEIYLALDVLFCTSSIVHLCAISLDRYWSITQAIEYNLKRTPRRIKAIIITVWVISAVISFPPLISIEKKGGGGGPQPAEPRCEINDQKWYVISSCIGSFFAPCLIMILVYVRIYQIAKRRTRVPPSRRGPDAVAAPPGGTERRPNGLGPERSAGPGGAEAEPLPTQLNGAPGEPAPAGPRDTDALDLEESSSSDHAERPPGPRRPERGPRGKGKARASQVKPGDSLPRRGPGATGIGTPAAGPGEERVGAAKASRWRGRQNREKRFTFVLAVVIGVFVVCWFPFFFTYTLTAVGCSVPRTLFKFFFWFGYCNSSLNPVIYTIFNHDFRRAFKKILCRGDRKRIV

The target in assay [2] is T2, Alpha-1A adrenergic receptor (Homo sapiens, UniProt P35348).
T2 sequence (P35348 whole entry): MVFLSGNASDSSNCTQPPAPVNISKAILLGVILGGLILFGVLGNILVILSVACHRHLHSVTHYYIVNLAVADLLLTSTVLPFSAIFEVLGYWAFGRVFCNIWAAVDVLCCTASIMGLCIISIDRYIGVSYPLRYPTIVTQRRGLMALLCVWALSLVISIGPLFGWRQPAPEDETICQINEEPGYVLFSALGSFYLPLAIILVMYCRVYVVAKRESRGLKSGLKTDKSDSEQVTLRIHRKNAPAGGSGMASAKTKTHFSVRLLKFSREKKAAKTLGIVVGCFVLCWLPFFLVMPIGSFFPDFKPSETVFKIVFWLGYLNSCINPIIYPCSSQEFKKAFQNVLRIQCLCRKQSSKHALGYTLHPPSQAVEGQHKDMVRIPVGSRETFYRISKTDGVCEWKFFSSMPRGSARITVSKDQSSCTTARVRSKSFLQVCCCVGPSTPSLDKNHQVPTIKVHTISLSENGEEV

The target of another assay is D(2) dopamine receptor (Homo sapiens, UniProt P14416).
Sequence of D(2) dopamine receptor (P14416 whole entry): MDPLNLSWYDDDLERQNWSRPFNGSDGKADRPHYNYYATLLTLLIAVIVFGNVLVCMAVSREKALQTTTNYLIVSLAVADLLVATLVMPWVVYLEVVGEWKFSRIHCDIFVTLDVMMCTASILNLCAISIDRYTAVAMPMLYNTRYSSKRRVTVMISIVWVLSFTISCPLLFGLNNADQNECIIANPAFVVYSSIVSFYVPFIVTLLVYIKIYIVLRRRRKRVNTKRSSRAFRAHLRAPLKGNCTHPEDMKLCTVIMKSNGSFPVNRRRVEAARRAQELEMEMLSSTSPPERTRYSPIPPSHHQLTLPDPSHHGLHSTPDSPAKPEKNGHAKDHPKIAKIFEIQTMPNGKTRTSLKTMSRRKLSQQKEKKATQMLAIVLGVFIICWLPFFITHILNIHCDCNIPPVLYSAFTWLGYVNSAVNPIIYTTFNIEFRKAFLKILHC

SMILES strings stand for the structures. Counter-ions that a name gives are not always drawn.

As for `OCCN1CCN(CCCN2c3ccccc3Sc3ccc(C(F)(F)F)cc32)CC1` [2-[4-[3-[2-(trifluoromethyl)phenothiazin-10-yl]propyl]piperazin-1-yl]ethanol;hydrochloride], the figures for the Ki in assay [1] and in assay [2] were […] and […], respectively.
`OCCN1CCN(CCCN2c3ccccc3Sc3ccc(Cl)cc32)CC1` [4-[3-(2-chlorophenothiazin-10-yl)propyl]-1-piperazineethanol]: the Ki – broadly, a dissociation constant, usually derived from enzyme kinetics or from competition with a known ligand – on D(2) dopamine receptor worked out at 1.4 nM.
Turning to `CN1CCN(CC/C=C2/c3ccccc3Sc3ccc(S(=O)(=O)N(C)C)cc32)CC1` [MLS000028463], the Ki came out at 0.45 nM on D(2) dopamine receptor, 200 nM in assay [1] and 11 nM in assay [2].
In assay [2], `CN1CCN(C2=Nc3ccccc3Oc3ccc(Cl)cc32)CC1` [13-chloro-10-(4-methylpiperazin-1-yl)-2-oxa-9-azatricyclo[9.4.0.0^{3,8}]pentadeca-1(11),3,5,7,9,12,14-heptaene] showed a Ki of 28 nM.
Consider `CC(C)(C)[C@]1(O)CCN2C[C@H]3c4ccccc4CCc4cccc(c43)[C@@H]2C1`, for which the Ki in assay [1] worked out at 310 nM; in assay [2], 56 nM.
In the case of `CN(C)CCCN1c2ccccc2Sc2ccccc21`, the results for the Ki (at D(2) dopamine receptor; in assay [1]; in assay [2]) were 160 nM, 900 nM and 6 nM, respectively.
For `CN1CCCCC1CCN1c2ccccc2Sc2ccc([S+](C)[O-])cc21` (stereo unspecified) the same measures were 19 nM, 1600 nM and 2 nM.
Compound `CN(C)CCCN1c2ccccc2Sc2ccc(C(F)(F)F)cc21` [TRIFLUPROMAZINE] showed a Ki at D(2) dopamine receptor of 2.8 nM.
Same read-out and setting: the figure for `CN1CCN(CCCN2c3ccccc3Sc3ccc(C(F)(F)F)cc32)CC1` is 2.6 nM; for `CN(C)CC/C=C1\c2ccccc2Sc2ccc(Cl)cc21` it is 8 nM.
Same read-out and setting: the same measure for `CCc1c(C)[nH]c2c1C(=O)C(CN1CCOCC1)CC2` (stereo unspecified) [Moban]: 120 nM.
As to `O=C(CCCN1CCC2(CC1)C(=O)NCN2c1ccccc1)c1ccc(F)cc1` [8-[4-(4-fluorophenyl)-4-oxidanylidene-butyl]-1-phenyl-1,3,8-triazaspiro[4.5]decan-4-one], the Ki was found to be 660 nM in assay [1] and 1.2 nM in assay [2].

The values are drawn from BindingDB's records for doi:10.1016/0014-2999(84)90478-3 (Mayo Clinic, 1984).
